Laboratory results reported in US20240116853A1, “2-HYDROXY-5-[2-(4-(TRIFLUOROMETHYLPHENYL)ETHYLAMINO)]BENZOIC ACID CRYSTAL FORMS AND PREPARATION METHOD THEREFOR” (GNT PHARMA CO., LTD., priority 2020, published 2024).
≈ marks a conversion by molar mass, not a printed value.

Key:
[1] = apparent solubility tested by HPLC; type: physicochemical; conditions: for Chromatographic peak area: HPLC peak area of the apparent solubility test; for apparent solubility compared with raw material: HPLC, versus crude raw materials
[2] = crystalline form stability test (XRPD after storage at 40° C. and 60% RH for three months); type: physicochemical
Experimental: In the present disclosure, the experimental conditions of X-ray powder diffraction are as follows. The test was performed by an X-ray powder diffractometer (radiation source Cu-kα, μ=1.5418 Å), and the XRPD spectrum with 2θ value of 3˜40° was scanned. The XRPD spectra of crystalline form I in Example 1 and crystalline form II in Example 2 are shown in FIG. 1 and FIG. 5, respectively, and the XRPD data are shown in Table 1. In order to test the stability of the crystalline form, the crystalline form I in Example 1 and the crystalline form II in Example 2 were subjected to powder diffraction test after being left under 40° C. and 60% relative humidity (RH) conditions for three months, and the results are shown in FIG. 1 and FIG. 5, respectively.
Crystalline form stability test: a certain amount of samples were left under 40° C. and 60% RH conditions for three months, and their powder diffraction results were tested, as shown in FIG. 1.
Crystalline form stability test: a certain amount of samples were left under 40° C. and 60% RH conditions for three months, and their powder diffraction results were tested, as shown in FIG. 5.

[3] = system: Alzheimer's disease; conditions: background statement; cited from earlier work

## O=C(O)c1cc(NCCc2ccc(C(F)(F)F)cc2)ccc1O [Crystalline form II, 2-hydroxy-5-[2-(4-(trifluoromethylphenyl)ethylamino)]benzoic acid]
[1]
  Chromatographic peak area: 311308
  apparent solubility compared with raw material: higher apparent solubility
[1]; tested by HPLC
  Solubility (apparent solubility): 2600 µg/mL (≈ 7.99 mM)
[2]
  crystalline form stability (XRPD characteristic peaks versus initial time): relatively stable

## O=C(O)c1cc(NCCc2ccc(C(F)(F)F)cc2)ccc1O [Raw material, 2-hydroxy-5-[2-(4-(trifluoromethylphenyl)ethylamino)]benzoic acid]
[1]
  Chromatographic peak area: 249333
[1]; thermodynamic from solid, tested by HPLC
  solubility: 1770 µg/mL (≈ 5.44 mM)

## O=C(O)c1cc(NCCc2ccc(C(F)(F)F)cc2)ccc1O [2-hydroxy-5-[2-(4-(trifluoromethylphenyl)ethylamino)]benzoic acid]
[3]
  effect on Alzheimer's disease in clinical trials: good inhibitory effect on Alzheimer's disease

## O=C(O)c1cc(NCCc2ccc(C(F)(F)F)cc2)ccc1O [Crystalline form I, 2-hydroxy-5-[2-(4-(trifluoromethylphenyl)ethylamino)]benzoic acid]
[1]
  Chromatographic peak area: 263684
  apparent solubility compared with raw material: higher apparent solubility
[1]; tested by HPLC
  Solubility (apparent solubility): 1880 µg/mL (≈ 5.78 mM)
[2]
  crystalline form stability (XRPD characteristic peaks versus initial time): stable and unchanged
